In ChEMBL document CHEMBL2010681, “Synthesis and SAR study of 4-arylpiperidines and 4-aryl-1,2,3,6-tetrahydropyridines as 5-HT₂C agonists” (Bioorg Med Chem Lett, 2012) one finds Ki, EC50 and inhibition data, which are given here for 27 molecules.

Assay [1] concerns the target T1, 5-hydroxytryptamine receptor 2C (Homo sapiens, UniProt P28335).
T1 sequence (P28335 whole entry): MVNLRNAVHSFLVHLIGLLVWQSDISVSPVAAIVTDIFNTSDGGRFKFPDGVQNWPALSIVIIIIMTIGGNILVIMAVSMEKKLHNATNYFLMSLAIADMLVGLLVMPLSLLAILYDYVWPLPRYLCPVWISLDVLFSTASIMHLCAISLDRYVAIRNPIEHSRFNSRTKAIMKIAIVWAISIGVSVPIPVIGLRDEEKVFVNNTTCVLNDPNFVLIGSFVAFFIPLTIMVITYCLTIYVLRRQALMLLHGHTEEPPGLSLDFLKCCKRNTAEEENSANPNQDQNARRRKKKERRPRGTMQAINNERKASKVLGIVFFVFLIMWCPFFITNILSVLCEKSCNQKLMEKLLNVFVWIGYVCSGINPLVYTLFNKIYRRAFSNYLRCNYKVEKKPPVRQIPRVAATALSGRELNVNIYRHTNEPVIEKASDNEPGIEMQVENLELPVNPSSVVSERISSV
As to the kind of experiment: Displacement of [3H]-mesulergine from 5HT2C receptor expressed in CHO cell membranes after 90 mins by scintillation counting.

For assay [2], the target named is T1, 5-hydroxytryptamine receptor 2C. The assay is described as follows: Agonist activity at 5HT2C receptor expressed in CHO cells by fluorescence based calcium mobilization assay. Format: functional, cell-based. On the technique in general: Calcium flux is commonly read through the fluorescence of an indicator in the cells.
Assay [3] deals with T2, 5-hydroxytryptamine receptor 2C (Homo sapiens) (UniProt P28335).
T2 sequence (whole entry): T1 sequence (P28335 whole entry)
As to the kind of experiment: Displacement of [3H]-mesulergine from 5HT2C receptor expressed in CHO cell membranes at 10 uM after 90 mins by scintillation counting.

For assay [4], the target named is T2, 5-hydroxytryptamine receptor 2C (Homo sapiens). The assay is described as follows: Displacement of [3H]-mesulergine from 5HT2C receptor expressed in CHO cell membranes at 1 uM after 90 mins by scintillation counting.
In assay [5] the target is T1, 5-hydroxytryptamine receptor 2C. The assay is described as follows: Displacement of [3H]-mesulergine from 5HT2C receptor expressed in CHO cell membranes using 11 concentration of ligand after 90 mins by scintillation counting using complete competition binding curves analysis. Background: In a radioligand displacement assay an active substance lowers the binding of a labelled ligand.

With `COc1cccc(C2CCNCC2)c1.Cl`, the affinity in assay [1] corresponds to a Ki of 6.19 µM. Moreover, the EC50 result in assay [2] (cho) was “Not Active”.
As to `Brc1ccc(C2=CCNCC2)cc1`, the inhibition in assay [3] was 65%; in assay [4], 22%. This molecule also registered a Ki in assay [1] of 2.54 µM. In assay [2] (read-out: EC50), the EC50 is 3.52 µM.
As for `Cc1ccc(C2CCNCC2)cc1.Cl`, the inhibition in assay [3] was 33%; in assay [4] it was 9%. Moreover, the inhibition constant Ki in assay [1] was over 10 µM. For the same molecule, in assay [2] (cho), the EC50 entry is “Not Active”.
Turning to `Clc1ccccc1C1=CCNCC1.O=C(O)C(F)(F)F`, in assay [2] (cho), the EC50 result was “Not Active”.
Turning to `Cc1cccc(C2CCNCC2)c1`, the inhibition amounted to 63% in assay [3] and 15% in assay [4]. Also, the Ki in assay [1] was 3.13 µM. Besides, the EC50 in assay [2] (read-out: EC50) was found to be 2 µM.
For `COc1ccccc1C1CCNCC1.Cl`, the inhibition was found to be 74% in assay [3] and 23% in assay [4]. In assay [1], this molecule returned a Ki of 1.8 µM. For the same molecule, the EC50 result in assay [2] (cho) is reported as “Not Active”.
On to `Clc1cccc(C2CCNCC2)c1`, for which the inhibition in assay [3] was 83%; in assay [4], 37%. For the same molecule, the values for the Ki in assay [1] and in assay [5] were 0.931 µM and 1.43 µM, respectively. The EC50 in assay [2] (read-out: EC50) came out at 0.79 µM.
For the molecule `FC(F)(F)c1cccc(C2CCNCC2)c1`, the inhibition in assay [3] is 77%; in assay [4] it was 26%. This molecule showed a Ki in assay [1] of 1.55 µM. Moreover, in assay [2] (read-out: EC50), the EC50 was found to be 1.26 µM.
For `C1=C(c2ccccc2)CCNC1`, in that order: 42%, 9%, 7.18 µM and 2.45 µM.
In the case of `Cl.Clc1ccccc1C1CCNCC1`, the EC50 entry in assay [2] (cho) is listed as “Not Active”.
On to `Clc1ccc(C2=CCNCC2)cc1`, for which the results for the inhibition in assay [3] and in assay [4] were 62% and 17%, respectively. Further, the Ki in assay [1] was 3.1 µM. Further, in assay [2] (read-out: EC50), the EC50 was found to be 1.76 µM.
`Cl.Oc1cccc(C2CCNCC2)c1`: the inhibitory constant (Ki) in assay [1] is over 10 µM. Besides, in assay [2] (cho), the EC50 entry is listed as “Not Active”.
Take `O=C(O)C(F)(F)F.c1cc2c(c(C3CCNCC3)c1)CCCC2`: the Ki came to 0.055 µM in assay [1] and 0.043 µM in assay [5]. Further, the EC50 entry in assay [2] (cho) is “Not Active”.
Take `c1ccc2c(C3CCNCC3)c[nH]c2c1`: the inhibition in assay [3] stood at 92%; in assay [4], 60%. Further, the Ki is 0.366 µM in assay [1] and 0.612 µM in assay [5]. For the same molecule, the EC50 in assay [2] (read-out: EC50) came to 0.128 µM.
Consider `Cc1cccc(C2CCNCC2)c1C.Cl`, for which the inhibitory constant (Ki) in assay [1] came to 1.16 µM. Moreover, the EC50 result in assay [2] (cho) is “Not Active”.
`Cl.FC(F)(F)c1ccccc1C1CCNCC1` came in with a Ki in assay [1] of 0.826 µM. The EC50 entry in assay [2] (cho) is “Not Active”.
For the molecule `O=C(O)C(F)(F)F.c1ccc2c(C3CCNCC3)cccc2c1`, the Ki in assay [1] was 0.06 µM; in assay [5], 0.072 µM. For the same molecule, in assay [2] (cho), the EC50 result is reported as “Not Active”.
For the molecule `FC(F)(F)c1cccc(C2=CCNCC2)c1`, the inhibition in assay [3] is 93%; in assay [4], 65%. The Ki in assay [1] was 0.298 µM; in assay [5] it was 0.365 µM. The EC50 in assay [2] (read-out: EC50) is 0.158 µM.
Consider `COc1ccc(C2CCNCC2)cc1.Cl`, for which the inhibition in assay [3] stood at 9%; in assay [4] it was 3%. The same molecule had a Ki in assay [1] of over 10 µM. Further, the EC50 result in assay [2] (cho) is “Not Active”.
The molecule `Cl.FC(F)(F)c1ccc(C2CCNCC2)cc1` had a Ki in assay [1] of 8.32 µM. The EC50 entry in assay [2] (cho) is listed as “Not Active”.
Consider `Clc1cccc(C2=CCNCC2)c1`, for which the inhibition in assay [3] amounted to 95%; in assay [4], 65%. Further, the Ki in assay [1] came out at 0.28 µM; in assay [5] it was 0.318 µM. The EC50 in assay [2] (read-out: EC50) is 0.0723 µM.
For the molecule `Cc1ccccc1C1CCNCC1.Cl`, the inhibition in assay [3] worked out at 65%; in assay [4], 10%. For the same molecule, in assay [1], the inhibition constant Ki was 3.17 µM. For the same molecule, the 50% effective concentration (EC50) result in assay [2] (cho) was “Not Active”.
For `C1=C(c2c[nH]c3ccccc23)CCNC1`, the inhibition in assay [3] was 95%; in assay [4], 64%. For the same molecule, the Ki amounted to 0.296 µM in assay [1] and 0.632 µM in assay [5]. Besides, the EC50 in assay [2] (read-out: EC50) is 0.163 µM.
Consider `Cl.c1ccc(C2CCNCC2)cc1`, for which the inhibition in assay [3] is 16%; in assay [4], 6%. Moreover, the Ki in assay [1] is over 10 µM. Moreover, the EC50 result in assay [2] (cho) was “Not Active”.
The molecule `Cl.Fc1ccc(C2CCNCC2)cc1` displayed a Ki in assay [1] of over 10 µM. Also, the EC50 entry in assay [2] (cho) is given as “Not Active”.
`Cl.Clc1ccc(C2CCNCC2)cc1` registered a Ki in assay [1] of over 10 µM. Further, in assay [2] (cho), the EC50 result was “Not Active”.
`CN(C)c1ccc(C2CCNCC2)cc1.Cl` registered an inhibitory constant (Ki) in assay [1] of over 10 µM. Further, the EC50 result in assay [2] (cho) was “Not Active”.

For orientation: Ki means a dissociation constant, usually derived from enzyme kinetics or from competition with a known ligand. By EC50 is commonly meant the concentration needed to bring the measured effect to its halfway point. By inhibition is commonly meant the share of the control response that was lost under treatment. A high value points to strong suppression.
